Reference: patent publication US12433865B2, “Compositions comprising PGI2-receptor agonists and processes for the preparation thereof” (Arena Pharmaceuticals, Inc., priority 2018, dated 2025)

Test: Release (dissolution) profile of capsules, USP Apparatus 2 (paddle)
Format: physicochemical
Conditions: 0.04 mg capsule; for Release rate (percentage of Compound 1 released over time): Poloxamer 188:food grade GMS 50:50
Source text: USP Apparatus 2 (Paddle Apparatus) is described, for example, in the United States Pharmacopeial Convention, Feb. 1, 2012, Chapter <711> (“Dissolution”), incorporated by reference herein in its entirety. See http://www.usp.org/sites/default/files/usp_pdf/EN/USPNF/revisions/m99470-gc_711.pdf. The assembly from Apparatus 1 is used, except that a paddle formed from a blade and a shaft is used as the stirring element. The shaft is positioned so that its axis is not more than 2 mm from the vertical axis of the vessel at any point and rotates smoothly without significant wobble that could affect the results. The vertical center line of the blade passes through the axis of the shaft so that the bottom of the blade is flush with the bottom of the shaft. A distance of 25±2 mm between the bottom of the blade and the inside bottom of the vessel is maintained during the test. The metallic or suitably inert, rigid blade and shaft comprise a single entity. A suitable two-part detachable design may be used provided the assembly remains firmly engaged during the test. The paddle blade and shaft may be coated with a suitable coating so as to make them inert. The dosage unit is allowed to sink to the bottom of the vessel before rotation of the blade is started. A small, loose piece of nonreactive material, such as not more than a few turns of wire helix, may be attached to dosage units that would otherwise float. Other validated sinker devices may be used.
Unless otherwise specified, the release profiles for capsules were measured using USP Apparatus 2 (paddle).
All release profiles disclosed in Tables 3c-3p were measured with USP Apparatus 2 (paddle) at 50 rpm in 500 mL of aqueous sodium phosphate at a concentration of 0.05 M (pH=6.8). The values in a given table relate to capsules obtained from the same batch. Values shown represent mean values over a number of dissolution tests (“n” in each table) in each case.

O=C(O)COC[C@H]1CC[C@H](COC(=O)N(c2ccccc2)c2ccc(Cl)cc2)CC1 [Compound 1, 2-(((1r,4r)-4-(((4-chlorophenyl)(phenyl)carbamoyloxy)methyl)cyclohexyl)methoxy)acetic acid]
release profile post-curing (Poloxamer 188:food grade GMS 50:50, cured 18 hours, one week, two weeks and four weeks post-curing (FIG. 6)): remained substantially the same
Release rate (percentage of Compound 1 released over time) (1 wk (40° C.) storage, 30 min): 11.1%
Release rate (percentage of Compound 1 released over time) (1 wk (40° C.) storage, 60 min): 22.6%
Release rate (percentage of Compound 1 released over time) (1 wk (40° C.) storage, 120 min): 40.1%
Release rate (percentage of Compound 1 released over time) (1 wk (40° C.) storage, 180 min): 59.2%
Release rate (percentage of Compound 1 released over time) (1 wk (40° C.) storage, 240 min): 71.8%
Release rate (percentage of Compound 1 released over time) (1 wk (40° C.) storage, 360 min): 88.4%
Release rate (percentage of Compound 1 released over time) (1 wk (40° C.) storage, 480 min): 92.2%
Release rate (percentage of Compound 1 released over time) (1 wk (40° C.) storage, 600 min): 96.2%
Release rate (percentage of Compound 1 released over time) (1 wk (40° C.) storage, 720 min): 95.3%
Release rate (percentage of Compound 1 released over time) (1 wk (40° C.) storage, 735 min): 96.1%
Release rate (percentage of Compound 1 released over time) (2 wks (40° C.) storage, 30 min): 10.8%
Release rate (percentage of Compound 1 released over time) (2 wks (40° C.) storage, 60 min): 18.3%
Release rate (percentage of Compound 1 released over time) (2 wks (40° C.) storage, 120 min): 36.8%
Release rate (percentage of Compound 1 released over time) (2 wks (40° C.) storage, 180 min): 52.9%
Release rate (percentage of Compound 1 released over time) (2 wks (40° C.) storage, 240 min): 67.4%
Release rate (percentage of Compound 1 released over time) (2 wks (40° C.) storage, 360 min): 83.3%
Release rate (percentage of Compound 1 released over time) (2 wks (40° C.) storage, 480 min): 90.3%
Release rate (percentage of Compound 1 released over time) (2 wks (40° C.) storage, 600 min): 93.8%
Release rate (percentage of Compound 1 released over time) (2 wks (40° C.) storage, 720 min): 93.7%
Release rate (percentage of Compound 1 released over time) (2 wks (40° C.) storage, 735 min): 94.3%
Release rate (percentage of Compound 1 released over time) (4 wks (40° C.) storage, 30 min): 7.3%
Release rate (percentage of Compound 1 released over time) (4 wks (40° C.) storage, 60 min): 17.7%
Release rate (percentage of Compound 1 released over time) (4 wks (40° C.) storage, 120 min): 37.4%
Release rate (percentage of Compound 1 released over time) (4 wks (40° C.) storage, 180 min): 54.6%
Release rate (percentage of Compound 1 released over time) (4 wks (40° C.) storage, 240 min): 70.3%
Release rate (percentage of Compound 1 released over time) (4 wks (40° C.) storage, 360 min): 87.5%
Release rate (percentage of Compound 1 released over time) (4 wks (40° C.) storage, 480 min): 90,9%
Release rate (percentage of Compound 1 released over time) (4 wks (40° C.) storage, 600 min): 93.2%
Release rate (percentage of Compound 1 released over time) (4 wks (40° C.) storage, 720 min): 95.0%
Release rate (percentage of Compound 1 released over time) (4 wks (40° C.) storage, 735 min): 94.3%
Release rate (percentage of Compound 1 released over time) (18 hrs (50° C.) curing, 30 min): 14.3%
Release rate (percentage of Compound 1 released over time) (18 hrs (50° C.) curing, 60 min): 21.8%
Release rate (percentage of Compound 1 released over time) (18 hrs (50° C.) curing, 120 min): 39.9%
Release rate (percentage of Compound 1 released over time) (18 hrs (50° C.) curing, 180 min): 56.3%
Release rate (percentage of Compound 1 released over time) (18 hrs (50° C.) curing, 240 min): 72.6%
Release rate (percentage of Compound 1 released over time) (18 hrs (50° C.) curing, 360 min): 89.2%
Release rate (percentage of Compound 1 released over time) (18 hrs (50° C.) curing, 480 min): 93.5%
Release rate (percentage of Compound 1 released over time) (18 hrs (50° C.) curing, 600 min): 95.7%
Release rate (percentage of Compound 1 released over time) (18 hrs (50° C.) curing, 720 min): 96.9%
Release rate (percentage of Compound 1 released over time) (18 hrs (50° C.) curing, 735 min): 95.6%
Release rate (percentage of Compound 1 released over time) (T = 0 (pre-curing), 30 min): 11.0%
Release rate (percentage of Compound 1 released over time) (T = 0 (pre-curing), 60 min): 18.3%
Release rate (percentage of Compound 1 released over time) (T = 0 (pre-curing), 120 min): 30.1%
Release rate (percentage of Compound 1 released over time) (T = 0 (pre-curing), 180 min): 39.6%
Release rate (percentage of Compound 1 released over time) (T = 0 (pre-curing), 240 min): 48.8%
Release rate (percentage of Compound 1 released over time) (T = 0 (pre-curing), 360 min): 64.1%
